In patent US7902361B2, “Pyrimidin-4-yl-3, 4-thione compounds and their use in therapy” (Cyclacel Limited, priority 2003, dated 2011):

How the values were obtained:
Assay type in all cases: biochemical
CDK7/cyclin H = CDK7/cyclin H (Homo sapiens, UniProt P50613); assay: Kinase assay CDK7/cyclin H; settings: Ki calculated (Cheng-Prusoff) from experimentally determined IC50 and Km,ATP; read-out: Kinase Inhibition Ki CDK7 - cyclin H
Experimental: (§1) The compounds from the examples above were investigated for their ability to inhibit the enzymatic activity of various protein kinases. This was achieved by measurement of incorporation of radioactive phosphate from ATP into appropriate polypeptide substrates. Recombinant protein kinases and kinase complexes were produced or obtained commercially. Assays were performed using 96-well plates and appropriate assay buffers (typically 25 mM β-glycerophosphate, 20 mM MOPS, 5 mM EGTA, 1 mM DTT, 1 mM […], pH 7.4), into which were added 2-4 μg of active enzyme with appropriate substrates. The reactions were initiated by addition of Mg/ATP mix (15 mM MgCl2+100 μM ATP with 30-50 kBq per well of [γ-^32P]-ATP) and mixtures incubated as required at 30° C. Reactions were stopped on ice, followed by filtration through p81 filterplates or GF/C filterplates (Whatman Polyfiltronics, Kent, UK). After washing 3 times with 75 mM aq orthophosphoric acid, plates were dried, scintillant added and incorporated radioactivity measured in a scintillation counter (TopCount, Packard Instruments, Pangbourne, Berks, UK). Compounds for kinase assay were made up as 10 mM stocks in DMSO and diluted into 10% DMSO in assay buffer.

GSK3β = molecular target: T1, GSK3β (Homo sapiens, UniProt P49841); assay: GSK3β in vitro kinase assay; settings: recombinant human GSK3β, 100 μM ATP
T1 construct: purchased New England Biolabs
T1 sequence (P49841 whole entry): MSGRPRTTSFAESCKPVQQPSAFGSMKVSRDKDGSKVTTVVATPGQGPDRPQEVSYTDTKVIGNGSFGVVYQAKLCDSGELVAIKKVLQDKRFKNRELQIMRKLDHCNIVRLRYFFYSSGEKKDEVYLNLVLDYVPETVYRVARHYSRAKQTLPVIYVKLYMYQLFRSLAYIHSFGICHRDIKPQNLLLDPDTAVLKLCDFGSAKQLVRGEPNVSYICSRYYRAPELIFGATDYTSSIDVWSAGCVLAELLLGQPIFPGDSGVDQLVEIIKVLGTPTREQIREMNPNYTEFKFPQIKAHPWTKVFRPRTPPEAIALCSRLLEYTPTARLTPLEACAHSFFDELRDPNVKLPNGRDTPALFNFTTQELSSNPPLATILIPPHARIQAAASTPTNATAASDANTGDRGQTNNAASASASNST
Experimental: Both isoforms of GSK3 (α and β) are involved in the regulation of glycogen synthase activity—key enzyme in the glycogen metabolism.
A 10-point titration was set up to determine the IC50 values of selected example compounds against GSK3β. Assays were performed using 96-well microtiter plates with a final volume of 25 μL per well. Each assay contained 1.5 units of GSK3β(New England Biolabs), 200 μM CREB phosphopeptide ([…]pSYR, Alta Biosciences), 20 mM Tris HCl pH7.5, 5 mM DTT, 15 mM MgCl2 supplemented with 100 μM ATP and 0.5 μCi of [γ-^32P] ATP plus or minus inhibitor in 2% DMSO. Assays were carried out for 30 minutes at 30° C. before stopping the reaction by the addition of an equal volume of 75 mM aqueous phosphoric acid. Samples were then spotted onto a p81 filterplate (Whatman) and a vacuum was applied. Wells were washed 3 times with 200 μL of dilute aqueous phosphoric acid before the addition of 50 μL Microscint 40 per well. Incorporation of radioactivity was determined on a Topcount microplate scintillation counter (Packard).

CDK2/cyclin E = CDK2/cyclin E (Homo sapiens, UniProt P24941); assay: Kinase assay CDK2/cyclin E; settings: Ki calculated (Cheng-Prusoff) from experimentally determined IC50 and Km,ATP; read-out: Kinase Inhibition Ki CDK2 - cyclin E
Experimental: as §1, with “The reactions were initiated by addition of Mg/ATP mix (15 mM MgCl2+100 μM ATP with 30-50 kBq per well of [γ-^32P]-ATP) and mixtures incubated as required at 30° C.” left out

aurora A = molecular target: T2, aurora A (Homo sapiens, UniProt O14965); assay: Kinase assay aurora A; settings: Ki calculated (Cheng-Prusoff) from experimentally determined IC50 and Km,ATP; read-out: Kinase Inhibition Ki Aurora A
T2 sequence (O14965 1-403): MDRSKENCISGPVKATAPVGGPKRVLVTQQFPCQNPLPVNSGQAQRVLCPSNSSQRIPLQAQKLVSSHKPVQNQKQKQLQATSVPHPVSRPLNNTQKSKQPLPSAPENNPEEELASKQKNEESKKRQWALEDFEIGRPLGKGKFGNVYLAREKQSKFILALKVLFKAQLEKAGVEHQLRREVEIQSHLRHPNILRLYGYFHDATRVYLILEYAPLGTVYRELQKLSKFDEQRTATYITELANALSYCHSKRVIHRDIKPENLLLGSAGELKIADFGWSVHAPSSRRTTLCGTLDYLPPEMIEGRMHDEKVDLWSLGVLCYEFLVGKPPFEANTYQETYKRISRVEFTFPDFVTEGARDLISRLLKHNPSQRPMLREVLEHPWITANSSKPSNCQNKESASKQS
Experimental: as §1, with “The reactions were initiated by addition of Mg/ATP mix (15 mM MgCl2+100 μM ATP with 30-50 kBq per well of [γ-^32P]-ATP) and mixtures incubated as required at 30° C.” left out

CDK2/cyclin A = CDK2/cyclin A (Homo sapiens, UniProt P24941); assay: Kinase assay CDK2/cyclin A; settings: Ki calculated (Cheng-Prusoff) from experimentally determined IC50 and Km,ATP; read-out: Kinase Inhibition Ki CDK2 - cyclin A
Experimental: as §1, with “The reactions were initiated by addition of Mg/ATP mix (15 mM MgCl2+100 μM ATP with 30-50 kBq per well of [γ-^32P]-ATP) and mixtures incubated as required at 30° C.” left out

CDK4/cyclin D1 = CDK4/cyclin D1 (Homo sapiens, UniProt P11802); assay: Kinase assay CDK4/cyclin D1; settings: Ki calculated (Cheng-Prusoff) from experimentally determined IC50 and Km,ATP; read-out: Kinase Inhibition Ki CDK4 - cyclin D1
Chain of CDK4/cyclin D1 (P11802 whole entry, species assumed): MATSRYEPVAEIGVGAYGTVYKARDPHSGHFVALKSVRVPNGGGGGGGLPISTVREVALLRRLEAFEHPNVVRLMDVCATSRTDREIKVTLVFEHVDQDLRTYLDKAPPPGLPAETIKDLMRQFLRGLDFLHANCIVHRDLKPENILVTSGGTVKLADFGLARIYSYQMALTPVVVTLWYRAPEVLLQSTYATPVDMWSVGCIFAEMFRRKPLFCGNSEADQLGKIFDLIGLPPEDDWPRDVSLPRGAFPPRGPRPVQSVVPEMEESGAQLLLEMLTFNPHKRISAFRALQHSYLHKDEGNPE
Chain of CDK4/cyclin D1 (P24385 whole entry partner, species assumed): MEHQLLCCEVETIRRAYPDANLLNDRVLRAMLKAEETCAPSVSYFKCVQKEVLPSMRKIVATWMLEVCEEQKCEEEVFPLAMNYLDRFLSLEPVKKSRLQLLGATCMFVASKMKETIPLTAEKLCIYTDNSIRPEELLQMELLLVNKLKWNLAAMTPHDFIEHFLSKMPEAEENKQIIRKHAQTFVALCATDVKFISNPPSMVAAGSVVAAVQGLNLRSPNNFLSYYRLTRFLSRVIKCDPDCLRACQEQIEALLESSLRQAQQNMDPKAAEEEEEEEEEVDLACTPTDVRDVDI
Experimental: as §1

CDK1/cyclin B = CDK1/cyclin B (Homo sapiens, UniProt P06493); assay: Kinase assay CDK1/cyclin B (radioactive phosphate incorporation); settings: Ki calculated (Cheng-Prusoff) from experimentally determined IC50 and Km,ATP; read-out: Kinase Inhibition Ki CDK1 - cyclin B
Chain of CDK1/cyclin B (P06493 whole entry, species assumed): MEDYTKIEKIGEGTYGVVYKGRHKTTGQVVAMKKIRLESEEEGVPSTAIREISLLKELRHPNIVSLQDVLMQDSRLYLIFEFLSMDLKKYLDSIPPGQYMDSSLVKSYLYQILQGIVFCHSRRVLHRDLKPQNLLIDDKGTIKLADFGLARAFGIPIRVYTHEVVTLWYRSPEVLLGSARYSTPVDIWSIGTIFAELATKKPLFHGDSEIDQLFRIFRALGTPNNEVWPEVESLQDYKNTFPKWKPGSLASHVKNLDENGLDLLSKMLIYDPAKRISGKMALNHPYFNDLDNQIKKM
Chain of CDK1/cyclin B (P14635 whole entry partner, species assumed): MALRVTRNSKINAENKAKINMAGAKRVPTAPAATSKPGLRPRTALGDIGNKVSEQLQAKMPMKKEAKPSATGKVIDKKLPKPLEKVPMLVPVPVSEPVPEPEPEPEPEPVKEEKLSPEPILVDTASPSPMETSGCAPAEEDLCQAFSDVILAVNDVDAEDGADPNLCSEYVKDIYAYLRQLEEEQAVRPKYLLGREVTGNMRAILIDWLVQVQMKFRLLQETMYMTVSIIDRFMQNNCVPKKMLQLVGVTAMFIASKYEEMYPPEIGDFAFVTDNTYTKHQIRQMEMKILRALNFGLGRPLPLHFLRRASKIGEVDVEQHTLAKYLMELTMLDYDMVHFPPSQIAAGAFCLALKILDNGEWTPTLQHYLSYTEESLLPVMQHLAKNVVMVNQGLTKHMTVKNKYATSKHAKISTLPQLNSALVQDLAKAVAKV
Experimental: as §1, with “The reactions were initiated by addition of Mg/ATP mix (15 mM MgCl2+100 μM ATP with 30-50 kBq per well of [γ-^32P]-ATP) and mixtures incubated as required at 30° C.” left out

CDK9/cyclin T1 = CDK9/cyclin T1 (Homo sapiens, UniProt P50750); assay: Kinase assay CDK9/cyclin T1; settings: Ki calculated (Cheng-Prusoff) from experimentally determined IC50 and Km,ATP; read-out: Kinase Inhibition Ki CDK9 - cyclin T1
Chain of CDK9/cyclin T1 (P50750 whole entry, species assumed): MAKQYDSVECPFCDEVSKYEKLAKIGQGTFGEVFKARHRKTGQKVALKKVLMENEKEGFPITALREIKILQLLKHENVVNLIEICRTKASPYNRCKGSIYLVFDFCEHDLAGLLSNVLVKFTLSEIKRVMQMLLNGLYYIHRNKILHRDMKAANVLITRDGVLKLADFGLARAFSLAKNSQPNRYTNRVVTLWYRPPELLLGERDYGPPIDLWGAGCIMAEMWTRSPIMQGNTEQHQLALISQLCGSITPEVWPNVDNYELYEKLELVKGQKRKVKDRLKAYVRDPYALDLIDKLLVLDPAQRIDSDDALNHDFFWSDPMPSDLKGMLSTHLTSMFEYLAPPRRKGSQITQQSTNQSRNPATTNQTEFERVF
Chain of CDK9/cyclin T1 (O60563 whole entry partner, species assumed): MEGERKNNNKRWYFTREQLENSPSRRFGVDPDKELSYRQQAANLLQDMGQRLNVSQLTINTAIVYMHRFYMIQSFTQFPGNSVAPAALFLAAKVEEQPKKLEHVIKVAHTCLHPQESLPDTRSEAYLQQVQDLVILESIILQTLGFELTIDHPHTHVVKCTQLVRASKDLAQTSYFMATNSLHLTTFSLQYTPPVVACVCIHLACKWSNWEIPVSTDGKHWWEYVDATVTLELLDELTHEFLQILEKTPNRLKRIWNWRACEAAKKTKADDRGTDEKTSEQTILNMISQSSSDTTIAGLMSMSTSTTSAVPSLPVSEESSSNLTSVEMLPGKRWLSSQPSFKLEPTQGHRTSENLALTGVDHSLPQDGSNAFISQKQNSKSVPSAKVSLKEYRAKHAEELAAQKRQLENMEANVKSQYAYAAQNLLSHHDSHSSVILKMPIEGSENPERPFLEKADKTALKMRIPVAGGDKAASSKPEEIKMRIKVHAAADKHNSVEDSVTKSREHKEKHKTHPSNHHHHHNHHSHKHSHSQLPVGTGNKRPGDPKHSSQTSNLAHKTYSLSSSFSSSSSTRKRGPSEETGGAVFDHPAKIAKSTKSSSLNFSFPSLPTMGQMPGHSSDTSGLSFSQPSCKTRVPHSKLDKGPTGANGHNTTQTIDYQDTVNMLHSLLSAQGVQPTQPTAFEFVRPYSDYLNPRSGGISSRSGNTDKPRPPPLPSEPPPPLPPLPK
Experimental: as §1

Chain of CDK7/cyclin H (P50613 whole entry, species assumed): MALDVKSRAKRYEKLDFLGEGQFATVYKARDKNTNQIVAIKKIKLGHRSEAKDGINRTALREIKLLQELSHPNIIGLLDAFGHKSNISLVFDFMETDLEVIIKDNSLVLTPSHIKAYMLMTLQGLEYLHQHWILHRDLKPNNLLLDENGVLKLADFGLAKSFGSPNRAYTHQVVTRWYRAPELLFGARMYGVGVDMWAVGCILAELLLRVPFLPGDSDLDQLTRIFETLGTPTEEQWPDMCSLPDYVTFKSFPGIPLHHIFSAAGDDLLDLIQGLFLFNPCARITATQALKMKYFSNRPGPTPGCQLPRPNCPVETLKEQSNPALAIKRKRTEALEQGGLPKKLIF
Chain of CDK7/cyclin H (P51946 whole entry partner, species assumed): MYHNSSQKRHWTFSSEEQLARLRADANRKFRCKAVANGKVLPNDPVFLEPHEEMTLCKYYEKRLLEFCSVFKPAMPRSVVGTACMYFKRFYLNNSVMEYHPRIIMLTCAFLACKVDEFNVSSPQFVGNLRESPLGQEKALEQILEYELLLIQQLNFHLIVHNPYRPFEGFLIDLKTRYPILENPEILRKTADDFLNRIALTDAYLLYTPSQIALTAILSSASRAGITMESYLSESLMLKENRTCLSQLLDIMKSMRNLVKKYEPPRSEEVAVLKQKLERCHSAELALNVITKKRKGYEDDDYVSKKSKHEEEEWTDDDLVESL

Row | Compound | Ki (CDK7/cyclin H) [nM] | IC50 (GSK3β) [nM] | Ki (CDK2/cyclin E) [nM] | Ki (aurora A) [nM] | Ki (CDK2/cyclin A) [nM] | Ki (CDK4/cyclin D1) [nM] | Ki (CDK1/cyclin B) [nM] | Ki (CDK9/cyclin T1) [nM]
1 | Cc1c(-c2ccnc(Nc3cccc(S(=O)(=O)N4CCOCC4)c3)n2)sc(=O)n1C [Compound 79, 3,4-Dimethyl-5-{2-[3-(morpholine-4-sulfonyl)-phenylamino]-pyrimidin-4-yl}-3H-thiazol-2-one] | 2600 | 35.6 | 1500 | 1400 |  |  |  | 
2 | Cc1c(-c2ccnc(Nc3cc(N)cc(C(F)(F)F)c3)n2)sc(=O)n1C [Compound 71, 5-[2-(3-Amino-5-trifluoromethyl-phenylamino)-pyrimidin-4-yl]-3,4-dimethyl-3H-thiazol-2-one] | 73 | 5.3 |  | 110 | 280 | 170 | 140 | 
3 | CC(=O)N1CCN(c2cccc(Nc3nccc(-c4sc(=O)n(C)c4C)n3)c2)CC1 [Compound 49, 5-{2-[3-(4-Acetyl-piperazin-1-yl)-phenylamino]-pyrimidin-4-yl}-3,4-dimethyl-3H-thiazol-2-one] | 1100 | 380 | 1300 | 110 | 3000 | 9.7 | 930 | 30
4 | Cc1c(-c2ccnc(Nc3ccc(N4CCNCC4)c(Cl)c3)n2)sc(=O)n1C [Compound 44, 5-[2-(3-Chloro-4-piperazin-1-yl-phenylamino)-pyrimidin-4-yl]-3,4-dimethyl-3H-thiazol-2-one] | 19 | 17.8 | 62 | 38 | 99 | 36 | 86 | 3.4
5 | CCn1c(C)c(-c2ccnc(Nc3ccc(F)cc3)n2)sc1=O [Compound 45, 3-Ethyl-5-[2-(4-fluoro-phenylamino)-pyrimidin-4-yl]-4-methyl-3H-thiazol-2-one] | 220 | 15.2 | 24 | 43 | 52 | 5000 | 300 | 11
6 | Cc1c(-c2ccnc(Nc3cccc(CNS(=O)(=O)C(F)(F)F)c3)n2)sc(=O)n1C [Compound 58, N-{3-[4-(3,4-Dimethyl-2-oxo-2,3-dihydro-thiazol-5-yl)-pyrimidin-2-ylamino]-benzyl}-C,C,C-trifluoro-methanesulfonamide] | 96 | 23.3 | 100 | 840 | 600 | 5100 | 1100 | 6.4
7 | Cc1c(-c2ccnc(Nc3cccc(S(=O)(=O)NC(C)C)c3)n2)sc(=O)n1C [Compound 74, 3-[4-(3,4-Dimethyl-2-oxo-2,3-dihydro-thiazol-5-yl)-pyrimidin-2-ylamino]-N-isopropyl-benzenesulfonamide] | 2700 | 75 | 1400 | 870 |  | 980 |  | 50
8 | Cc1c(-c2ccnc(Nc3cccc(CNS(C)(=O)=O)c3)n2)sc(=O)n1C [Compound 55, N-{3-[4-(3,4-Dimethyl-2-oxo-2,3-dihydro-thiazol-5-yl)-pyrimidin-2-ylamino]-benzyl}-methane-sulfonamide] | 110 | 82 | 39 | 46 | 42 | 110 | 160 | 2.2
9 | COCCNS(=O)(=O)c1ccc(Nc2nccc(-c3sc(=O)n(C)c3C)n2)cc1 [Compound 65, 4-[4-(3,4-Dimethyl-2-oxo-2,3-dihydro-thiazol-5-yl)-pyrimidin-2-ylamino]-N-(2-methoxy-ethyl)-benzenesulfonamide] | 940 | 9 |  | 530 |  |  | 4.1 | 14
10 | Cc1cc(Nc2nccc(-c3sc(=O)n(C)c3C)n2)cnc1Cl [Compound 81, 5-[2-(6-Chloro-5-methyl-pyridin-3-ylamino)-pyrimidin-4-yl]-3,4-dimethyl-3H-thiazol-2-one] |  | 3.2 |  | 500 |  |  |  | 
11 | Cc1c(-c2ccnc(Nc3ccc(CN)cc3)n2)sc(=O)n1C [Compound 80, 5-[2-(4-Aminomethyl-phenylamino)-pyrimidin-4-yl]-3,4-dimethyl-3H-thiazol-2-one] |  | 69.8 |  | 380 |  |  |  | 

The remaining compounds from weak to strong by IC50 (GSK3β), led by results:

Row | Ki (CDK7/cyclin H) [nM] | IC50 (GSK3β) [nM] | Ki (CDK2/cyclin E) [nM] | Ki (aurora A) [nM] | Ki (CDK2/cyclin A) [nM] | Ki (CDK4/cyclin D1) [nM] | Ki (CDK1/cyclin B) [nM] | Ki (CDK9/cyclin T1) [nM] | Compound
12 | 2900 | 3500 |  | 2600 |  |  |  | 460 | COc1ccc(C)c(Nc2nccc(-c3sc(=O)n(C)c3C)n2)c1 [Compound 56, 5-[2-(5-Methoxy-2-methyl-phenylamino)-pyrimidin-4-yl]-3,4-dimethyl-3H-thiazol-2-one]
13 | 1200 | 130 | 2100 | 1100 |  |  |  | 27 | Cc1ccc(Nc2nccc(-c3sc(=O)n(C)c3C)n2)cc1S(=O)(=O)N1CCOCC1 [Compound 78, 3,4-Dimethyl-5-{2-[4-methyl-3-(morpholine-4-sulfonyl)-phenylamino]-pyrimidin-4-yl}-3H-thiazol-2-one]
14 | 790 | 101 | 570 | 1100 | 400 |  |  | 57 | CCn1c(C)c(-c2ccnc(Nc3ccc(Cl)cc3)n2)sc1=O [Compound 46, 5-[2-(4-Chloro-phenylamino)-pyrimidin-4-yl]-3-ethyl-4-methyl-3H-thiazol-2-one]
15 | 17 | 30.8 | 15 | 53 | 87 | 1800 | 180 | 3 | CCn1c(C)c(-c2ccnc(Nc3ccc(C)c(O)c3)n2)sc1=O [Compound 47, 3-Ethyl-5-[2-(3-hydroxy-4-methyl-phenylamino)-pyrimidin-4-yl]-4-methyl-3H-thiazol-2-one]
16 | 1200 | 8.3 | 0.5 | 510 | 2.9 | 830 | 5.4 | 11 | Cc1c(-c2ccnc(Nc3ccc(S(=O)(=O)NCCO)cc3)n2)sc(=O)n1C [Compound 72, 4-[4-(3,4-Dimethyl-2-oxo-2,3-dihydro-thiazol-5-yl)-pyrimidin-2-ylamino]-N-(2-hydroxy-ethyl)-benzenesulfonamide]
